# In patent US6191155A (priority 1997, dated 2001):
# Key:
# [1] = log P by HPLC (EEC Directive 79/831 Annex V.A8); assay type: physicochemical; conditions: gradient method, acetonitrile/0.1% of aqueous phosphoric acid
# Description: *) The log P values were determined in accordance with EEC Directive 79/831
# Annex V.A8 by HPLC (gradient method, acetonitrile/0.1% of aqueous
# [2] = system: Erysiphe graminis f.sp. hordei; assay: Erysiphe test (barley)/protective; assay type: in vivo, Erysiphe graminis f.sp. hordei (on barley); conditions: active compound concentration 250 (head: % by weight); protective; 7 days after inoculation; 100% = no infection
# Description: Erysiphe Test (Barley)/Protective
# (§1) Solvent: 10 parts by weight of N-methyl-pyrrolidone
# (§2) Emulsifier: 0.6 parts by weight of alkylaryl polyglycol ether
# (§3) To produce a suitable preparation of active compound, 1 part by weight of active compound is mixed with the stated amounts of solvent and emulsifier, and the concentrate is diluted with water to the desired concentration.
# To test for protective activity, young plants are sprayed with the preparation of active compound at the stated application rate.
# After the spray coating has dried on, the plants are dusted with spores of Erysiphe graminis f.sp. hordei.
# The plants are placed in a greenhouse at a temperature of approximately 20° C. and a relative atmospheric humidity of approximately 80% to promote the development of mildew pustules.
# Evaluation is carried out 7 days after the inoculation. 0% means an efficacy which corresponds to that of the control, while an efficacy of 100% means that no infection is observed.
# Plutella xylostella = assay: Plutella test (caterpillars of the diamond-back moth on cabbage leaves); assay type: in vivo, Plutella xylostella (on Brassica oleracea); conditions: 168 h, active compound concentration 0.1 % by weight, after 7 days, read-out: Kill in % after 7d
# Description: Solvent: 7 parts by weight of dimethylformamide
# Emulsifier: 1 part by weight of alkylaryl polyglycol ether
# as §3
# Cabbage leaves (Brassica oleracea) are treated by being dipped into the preparation of active compound of the desired concentration and are populated with caterpillars of the diamond-back moth (Plutella xylostella) while the leaves are still moist.
# After 7 days, the kill is determined. An efficacy of 100% means that all caterpillars have been killed, while an efficacy of 0% means that none of the caterpillars have been killed.
# Leptosphaeria nodorum = Leptosphaeria nodorum test (wheat)/protective; assay type: in vivo, Leptosphaeria nodorum (on wheat); conditions: application rate 250 g/ha; protective; evaluation 10 days after inoculation
# Description: Leptosphaeria nodorum Test (Wheat)/Protective
# as §1, §2, §3
# To test for protective activity, young plants are sprayed with the preparation of active compound at the stated application rate. After the spray coating has dried on, the plants are sprayed with a spore suspension of Leptosphaeria nodorum. The plants remain in an incubation cabin at 20° C. and 100% relative atmospheric humidity for 48 hours.
# The plants are placed in a greenhouse at a temperature or approximately 15° C. and a relative atmospheric humidity of 80%.
# Evaluation is carried out 10 days after the inoculation. 0% means an efficacy which corresponds to that of the control, while an efficacy of 100% means that no infection is observed.
# fungi = conditions: cited from earlier work
SMILES,chromatographic logP [1],also measured
CCN(CC)CCOC(=O)c1snc(Cl)c1Cl [Example 2],1.37,
O=C(OCCOCCN1CCCC1)c1snc(Cl)c1Cl [Example 3],1.36,Efficacy in % [2]: 100%; mortality at 0.1 % strength (Plutella xylostella): 100%
O=C(OCCOc1cccc(C(F)(F)F)c1)c1snc(Cl)c1Cl [Example 4],4.71,
O=C(OCCOCc1ccccc1)c1snc(Cl)c1Cl [Example 5],4.12,
COC(=O)c1ccc(OCCOC(=O)c2snc(Cl)c2Cl)cc1 [Example 6],3.91,
CCN(CCOCCOC(=O)c1snc(Cl)c1Cl)c1ccccc1 [Example 7],2.6,
O=C(OCCOCC(F)(F)F)c1snc(Cl)c1Cl [Example 8],3.55,
O=C(OCCOC(CF)CF)c1snc(Cl)c1Cl [Example 9],3.11,
O=C(OCCOc1ccc(Cl)cc1)c1snc(Cl)c1Cl [Example 10],4.58,
O=C(OCCn1nnc2ccccc21)c1snc(Cl)c1Cl [Example 11],2.81,
O=C(OCc1cccnc1)c1snc(Cl)c1Cl [Example 12],,mortality at 0.1 % strength (Plutella xylostella): 100%
O=C(OCCc1ccc(Cl)cc1)c1snc(Cl)c1Cl [Example 13],,Efficacy in % (Leptosphaeria nodorum): 81%
CSC(=O)c1snc(Cl)c1Cl [Example 15],3.46,
CC(C)CSC(=O)c1snc(Cl)c1Cl [Example 17],5.16,
CCCSC(=O)c1snc(Cl)c1Cl [Example 18],4.66,
Cc1ccc(C(C)OC(=O)c2snc(Cl)c2Cl)cc1 (centres unmarked) [Example 19],5.02,
O=C(OCC(O)CO)c1snc(Cl)c1Cl (centres unmarked) [Example 20],1.49,
"CC(C)OC(=O)c1snc(Cl)c1Cl [isopropyl 3,4-dichloro-isothiazol-5-carboxylate]",,activity in controlling fungi (fungi): good
